One experiment concerns C57BL/6J mice. Description: Glucokinase activator in vivo screen (blood glucose after oral dosing). The following applies: oral gavage 50 mg/kg, blood glucose at 0, 1, 2, 4, 6 h, active = significant (p ≦0.05) decrease for two consecutive time points. As to the method:
Glucokinase Activator in vivo Screen Protocol: C57BL/6J mice are orally dosed via gavage with Glucokinase (GK) activator at 50 mg/kg body weight following a two hour fasting period. Blood glucose determinations are made five times during the six hour post-dose study period.
Mice (n=6) are weighed and fasted for a two hour period prior to oral treatment. GK activators are formulated at 6.76 mg/ml in Gelucire vehicle (Ethanol:Gelucire44/14:PEG400q.s. 4:66:30 v/w/v. Mice are dosed orally with 7.5 μl formulation per gram of body weight to equal to a 50 mg/kg dose. Immediately prior to dosing, a pre dose (time zero) blood glucose reading is acquired by snipping off a small portion of the animals tail (˜1 mm) and collecting 15 μl blood into a heparinized capillary tube for analysis. Following GK activator administration, additional blood glucose reading are takenat 1, 2, 4 and 6 hours post dose from the same tail wound. Results are interpreted by comparing the mean blood glucose values of six vehicle treated mice with six GK activator treated mice over the six hour study duration. Compounds are considered active when they exibit a statistically significant (p ≦0.05) decrease in blood glucose compared to vehicle for two consecutive assay time points.

The target of a further experiment is T1, Human liver GK1 (GST-GK) (Homo sapiens, UniProt P35557).
T1 construct: made in house; host or cells: E. coli
T1 sequence (P35557 1-466 isoform P35557-2): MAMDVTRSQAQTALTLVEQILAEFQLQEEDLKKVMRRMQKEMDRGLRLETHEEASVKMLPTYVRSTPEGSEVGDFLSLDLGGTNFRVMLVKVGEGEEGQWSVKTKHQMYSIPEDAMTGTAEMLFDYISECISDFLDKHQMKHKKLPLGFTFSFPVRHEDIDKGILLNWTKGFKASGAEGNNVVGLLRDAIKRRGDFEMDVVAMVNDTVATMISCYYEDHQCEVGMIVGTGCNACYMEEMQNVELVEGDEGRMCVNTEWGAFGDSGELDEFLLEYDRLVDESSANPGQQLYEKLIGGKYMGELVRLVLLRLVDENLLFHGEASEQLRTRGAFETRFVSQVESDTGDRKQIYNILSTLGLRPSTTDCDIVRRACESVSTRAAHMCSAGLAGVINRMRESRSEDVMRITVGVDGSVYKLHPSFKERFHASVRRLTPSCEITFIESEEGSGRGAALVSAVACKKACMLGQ
The experiment in a line: In vitro glucokinase activity assay (G6PDH-coupled, NADH, OD 340 nm). In kind it is biochemical. Conditions: 25° C., 5 mM D-glucose, 1 mM ATP, 10% DMSO, recombinant GST-GK. As to the method:
Glucokinase Assay: Glucokinase (GK) was assayed by coupling the production of glucose-6-phosphate to the generation of NADH with glucose-6-phosphate dehydrogenase (G6PDH, 0.75-1 kunits/mg; Boehringer Mannheim, Indianapolis, Ind.) from Leuconostoc mesenteroides as the coupling enzyme (Scheme 2). Recombinant
Human liver GK1 was expressed in E. coli as a glutathione S-transferase fusion protein (GST-GK) [Liang et al, 1995] and was purified by chromatography over a glutathione-Sepharose 4B affinity column using the procedure provided by the manufacturer (Amersham Pharmacia Biotech, Piscataway, N.J.).
The assay was conducted at 25° C. in a flat bottom 96-well tissue culture plate from Costar (Cambridge, Mass.) with a final incubation volume of 120 μl. The incubation mixture contained: 25 mM Hepes buffer (pH, 7.1), 25 mM KCl, 5 mM D-glucose, 1 mM ATP, 1.8 mM NAD, 2 mM MgCl2, 1 μM sorbitol-6-phosphate, 1 mM dithiothreitol, test drug or 10% DMSO, 1.8 unit/ml G6PDH, and GK (see below). […]
After addition of enzyme, the increase in optical density (OD) at 340 nm was monitored over a 10 minute incubation period as a measure of GK activity. […] The GK activity in control wells was compared with the activity in wells containing test GK activators, and the concentration of activator that produced a 50% increase in the activity of GK, i.e., the SC1.5, was calculated.

As to `O=C(Nc1ccc(Cl)cn1)[C@H](CC1CCCCC1)N1Cc2ccccc2C1=O` [Example 33, (S)-3-Cyclohexyl-2-(1-oxo-1,3-dihydro-isoindol-2-yl)-N-5-chloro-pyridin-2-yl-propionamide], the “glucokinase activator in vivo activity (decrease in blood glucose compared to vehicle)” value with C57BL/6J mice is listed as “excellent glucokinase activator in vivo activity”.

For `O=C(Nc1nccs1)[C@H](CC1CCCCC1)N1Cc2ccccc2C1=O` [Example 1, (S)-3-cyclohexyl-2-(1-oxo-1,3-dihydro-isoindol-2-yl)-N-thiazol-2-yl-propionamide], in the experiment on C57BL/6J mice, the “glucokinase activator in vivo activity (decrease in blood glucose compared to vehicle)” value was “excellent glucokinase activator in vivo activity”.

With `Cc1ccc(NC(=O)[C@H](CC2CCCCC2)N2Cc3ccccc3C2=O)nc1` [Example 31, (S)-3-Cyclohexyl-2-(1-oxo-1,3-dihydro-isoindol-2-yl)-N-5-methyl-pyridin-2-yl-propionamide], the “glucokinase activator in vivo activity (decrease in blood glucose compared to vehicle)” value in the experiment on C57BL/6J mice was “excellent glucokinase activator in vivo activity”.

Turning to `O=C(Nc1cnccn1)[C@H](CC1CCCCC1)N1Cc2ccccc2C1=O` [Example 15, (S)-3-Cyclohexyl-2-(1-oxo-1,3-dihydro-isoindol-2-yl)-N-pyrazin-2-yl-propionamide], the “glucokinase activator in vivo activity (decrease in blood glucose compared to vehicle)” value in the experiment with C57BL/6J mice is reported as “excellent glucokinase activator in vivo activity”.

As for `O=C(Nc1ccncn1)[C@H](CC1CCCCC1)N1Cc2ccccc2C1=O` [Example 14, 3-Cyclohexyl-2-(1-oxo-1,3-dihydro-isoindol-2-yl)-N-pyrimidin-4-yl-propionamide], the “glucokinase activator in vivo activity (decrease in blood glucose compared to vehicle)” value with C57BL/6J mice is on record as “excellent glucokinase activator in vivo activity”.

Take `O=C(Nc1ncc(Cl)s1)C(CC1CCCC1)N1Cc2ccccc2C1=O` (centres unmarked) [Example 18, N-(5-Chloro-thiazol-2-yl)-3-cyclopentyl-2-(1-oxo-1,3-dihydro-isoindol-2-yl)-propionamide]: the “glucokinase activator in vivo activity (decrease in blood glucose compared to vehicle)” value with C57BL/6J mice was “excellent glucokinase activator in vivo activity”.

In the case of `O=C(Nc1nccs1)[C@H](CC1CCCCC1)N1Cc2c(F)cccc2C1=O` [Example 23.1, (S)-3-Cyclohexyl-2-(4-fluoro-1-oxo-1,3-dihydro-isoindol-2-yl)-N-thiazol-2-yl-propionamide], the “glucokinase activator in vivo activity (decrease in blood glucose compared to vehicle)” value with C57BL/6J mice is “excellent glucokinase activator in vivo activity”.

As to `O=C(Nc1ccccn1)[C@H](CC1CCCCC1)N1Cc2ccccc2C1=O` [Example 26, (S)-3-Cyclohexyl-2-(1-oxo-1,3-dihydro-isoindol-2-yl)-N-pyridin-2-yl-propionamide], the “glucokinase activator in vivo activity (decrease in blood glucose compared to vehicle)” value in the experiment with C57BL/6J mice is given as “excellent glucokinase activator in vivo activity”.

`O=C(Nc1ccc(Br)cn1)[C@H](CC1CCCCC1)N1Cc2ccccc2C1=O` [Example 22, (S)-N-(5-Bromo-pyridin-2-yl)-3-cyclohexyl-2-(1-oxo-1,3-dihydro-isoindol-2-yl)-propionamide]: the “glucokinase activator in vivo activity (decrease in blood glucose compared to vehicle)” value in the experiment with C57BL/6J mice is “excellent glucokinase activator in vivo activity”.

`O=C(Nc1cnccn1)[C@H](CC1CCCCC1)N1Cc2c(F)cccc2C1=O` [Example 25.1]: the “glucokinase activator in vivo activity (decrease in blood glucose compared to vehicle)” value in the experiment with C57BL/6J mice is “excellent glucokinase activator in vivo activity”.

For `O=C(Nc1nccs1)[C@@H](CC1CCCCC1)N1Cc2ccccc2C1=O` [Example 9, (R)-3-cyclohexyl-2-(1-oxo-1,3-dihydro-isoindol-2-yl)-N-thiazol-2-yl-propionamide], the “SC1.5 (concentration of activator that produced a 50% increase in the activity of GK)” value at Human liver GK1 (GST-GK) stood at 36 µM.
